Test results from article PMC5033714 (Neuron, 2016).
pIC50: −log10 of the molar value.

Columns and labels:
[1] = target: GluN1-CC/2A receptors (GluN1-N499C+Q686C) (Rattus norvegicus, UniProt P35439+Q00959, N499C/Q686C); assay type: cell-based; settings: 100 μM glutamate alone; glycine 300 μM, 7CKA 10 μM, TCN-201 5 μM, MPX-004 10 μM, MPX-007 30 μM
GluN1/2A receptors = GluN1/2A receptors (Rattus norvegicus, UniProt P35439+Q00959); assay type: cell-based; settings: for increase of IC50 in 30 μM glycine compared to 3 μM glycine: 100 μM glutamate; for extent of inhibition of GluN1/2A / pIC50: activated by 100 μM glutamate plus 3 μM glycine; for pIC50: read-out: IC50 for inhibition of GluN1/2A
[2] = Solubility-limited maximal concentration in recording solution; assay type: physicochemical; settings: extracellular recording solution pH 7.4, DMSO < 0.3%
GluN1/2B-D receptors = assay type: cell-based
GluN1/2B receptors = GluN1/2B receptors (Rattus norvegicus, UniProt P35439+Q00960); assay type: cell-based
[3] = target: GluN1/2A receptors with GluN1-Y535L (Rattus norvegicus, UniProt P35439+Q00959, Y535L); test: Schild analysis of TCN-201, GluN1-Y535L; assay type: cell-based
[4] = target: GluN1/2A receptors with GluN1-R755A (Rattus norvegicus, UniProt P35439+Q00959, R755A); test: TCN-201 inhibition, GluN1-R755A; assay type: cell-based
[5] = target: GluN1/2A receptors with GluN1-Y535F (Rattus norvegicus, UniProt P35439+Q00959, Y535F); test: Schild analysis of TCN-201, GluN1-Y535F; assay type: cell-based
[6] = target: GluN1/2A receptors with GluN1-F754V (Rattus norvegicus, UniProt P35439+Q00959, F754V); test: Glycine concentration-response and Schild analysis, GluN1-F754V; assay type: cell-based
[7] = target: GluN1/2A receptors with GluN1-F754L (Rattus norvegicus, UniProt P35439+Q00959, F754L); test: Glycine concentration-response and Schild analysis, GluN1-F754L; assay type: cell-based
[8] = target: wild type GluN1/2A receptors (Rattus norvegicus, UniProt P35439+Q00959); assay type: cell-based
[9] = target: GluN1/2A receptors with GluN2A-V783A (Rattus norvegicus, UniProt P35439+Q00959, V783A); test: Glycine concentration-response and Schild analysis, GluN2A-V783A; assay type: cell-based
[10] = target: GluN1/2A receptors with GluN2A-V783F (Rattus norvegicus, UniProt P35439+Q00959, V783F); test: Glycine concentration-response and Schild analysis, GluN2A-V783F; assay type: cell-based; settings: read-out: binding affinity KB

Sequence of GluN1/2A receptors with GluN1-F754V (Q00959 20-1464 limits assumed, other chains not shown): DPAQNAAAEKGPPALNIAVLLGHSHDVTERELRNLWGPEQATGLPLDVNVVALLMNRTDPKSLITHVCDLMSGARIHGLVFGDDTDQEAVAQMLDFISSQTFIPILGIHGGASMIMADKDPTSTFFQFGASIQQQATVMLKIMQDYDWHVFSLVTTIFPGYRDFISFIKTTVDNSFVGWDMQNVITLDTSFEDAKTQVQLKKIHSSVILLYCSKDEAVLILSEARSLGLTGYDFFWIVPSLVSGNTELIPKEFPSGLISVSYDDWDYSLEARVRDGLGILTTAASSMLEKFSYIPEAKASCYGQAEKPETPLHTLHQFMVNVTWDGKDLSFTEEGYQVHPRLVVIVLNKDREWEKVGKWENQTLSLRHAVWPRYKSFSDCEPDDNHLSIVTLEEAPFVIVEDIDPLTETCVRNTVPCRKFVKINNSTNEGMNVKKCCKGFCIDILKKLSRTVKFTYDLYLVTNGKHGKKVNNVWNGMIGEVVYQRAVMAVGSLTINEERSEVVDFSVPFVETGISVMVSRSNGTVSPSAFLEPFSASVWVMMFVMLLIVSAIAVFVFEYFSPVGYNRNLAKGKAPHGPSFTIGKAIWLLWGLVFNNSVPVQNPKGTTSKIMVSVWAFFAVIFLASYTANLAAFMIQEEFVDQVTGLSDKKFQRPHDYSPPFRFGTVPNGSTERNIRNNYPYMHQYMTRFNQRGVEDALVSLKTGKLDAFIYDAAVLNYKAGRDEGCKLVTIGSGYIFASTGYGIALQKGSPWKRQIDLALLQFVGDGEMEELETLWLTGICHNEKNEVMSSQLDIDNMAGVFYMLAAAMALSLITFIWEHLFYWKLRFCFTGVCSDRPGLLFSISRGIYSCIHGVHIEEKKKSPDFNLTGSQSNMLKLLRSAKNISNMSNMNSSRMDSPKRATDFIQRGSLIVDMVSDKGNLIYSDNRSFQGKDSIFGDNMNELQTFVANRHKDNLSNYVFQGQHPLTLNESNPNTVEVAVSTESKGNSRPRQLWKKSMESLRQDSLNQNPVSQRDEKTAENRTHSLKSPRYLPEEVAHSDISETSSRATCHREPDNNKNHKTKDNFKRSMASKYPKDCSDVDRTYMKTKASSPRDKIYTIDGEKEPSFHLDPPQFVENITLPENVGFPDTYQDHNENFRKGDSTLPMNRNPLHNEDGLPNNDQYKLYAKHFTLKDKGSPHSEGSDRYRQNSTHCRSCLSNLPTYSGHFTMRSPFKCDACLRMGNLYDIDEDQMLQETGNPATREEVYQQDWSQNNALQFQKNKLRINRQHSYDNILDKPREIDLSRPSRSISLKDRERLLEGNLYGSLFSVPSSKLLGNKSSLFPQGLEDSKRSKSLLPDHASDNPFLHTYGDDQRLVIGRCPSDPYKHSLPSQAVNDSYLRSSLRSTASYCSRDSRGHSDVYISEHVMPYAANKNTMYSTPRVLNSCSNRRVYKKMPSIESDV
Sequence of GluN1/2A receptors (Q00959 20-1464 limits assumed, other chains not shown): as above
Sequence of GluN1-CC/2A receptors (GluN1-N499C+Q686C) (Q00959 20-1464 limits assumed, other chains not shown): as above

O=C(O)c1cc(O)c2ccc(Cl)cc2n1 [7CKA]
effect on glutamate-activated responses from crosslinked GluN1-CC/2A [1]: not sensitive

Cc1ncc(CNC(=O)c2cnc(CNS(=O)(=O)c3ccc(F)c(Cl)c3)cn2)s1 [MPX-004]
increase of IC50 in 30 μM glycine compared to 3 μM glycine (GluN1/2A receptors; GluN1/2A): 3.8 fold | maximal inhibition (GluN1/2A receptors; GluN1/2A, 300 μM glycine): 71% ± 4% | extent of inhibition of GluN1/2A (GluN1/2A receptors): nearly complete inhibition | pIC50 (GluN1/2A receptors): ~6.70 | maximal concentration used, limited by compound solubility [2]: 10 µM | effect on glutamate-activated responses from crosslinked GluN1-CC/2A [1]: significant potentiation | selectivity for GluN1/2A over GluN1/2B-D (GluN1/2B-D receptors): strict selectivity

Cc1ncc(CNC(=O)c2cnc(CNS(=O)(=O)c3ccc(F)c(F)c3)c(C)n2)s1 [MPX-007]
increase of IC50 in 30 μM glycine compared to 3 μM glycine (GluN1/2A receptors; GluN1/2A): 3.2 fold | maximal inhibition (GluN1/2A receptors; GluN1/2A, 300 μM glycine): 95% ± 1% | extent of inhibition of GluN1/2A (GluN1/2A receptors): nearly complete inhibition | pIC50 (GluN1/2A receptors): ~6.70 | glycine-sensitivity of inhibition of GluN1/2B (GluN1/2B receptors): sensitive to the glycine concentration | inhibition of GluN1/2B receptors (GluN1/2B receptors; 30 μM compound, 3 μM glycine, n = 6): 48% ± 3% | maximal concentration used, limited by compound solubility [2]: 30 µM | concentrations at which GluN1/2B-D receptors are inhibited (GluN1/2B-D receptors): 10 to 30 µM

O=C(NNC(=O)c1ccc(CNS(=O)(=O)c2ccc(F)c(Cl)c2)cc1)c1ccccc1 [TCN-201]
inhibition in 300 μM glycine (GluN1/2A receptors; GluN1/2A, 300 μM glycine): markedly diminished | extent of inhibition of GluN1/2A (GluN1/2A receptors): nearly complete inhibition | pIC50 (GluN1/2A receptors): ~6.70 | allosteric constant [3]: 0.016 | inhibition [4]: abolished | allosteric constant compared to wild type [5]: virtually unchanged | binding affinity KB compared to wild type [5]: virtually unchanged | maximal concentration used, limited by compound solubility [2]: 5 µM | allosteric constant [6]: 0.086 | maximal increase of glycine EC50 (1/α) [6]: 12 fold | Kb ([6]; read-out: binding affinity KB): 131 nM | selectivity for GluN1/2A over GluN1/2B-D (GluN1/2B-D receptors): strict selectivity | allosteric constant [7]: 0.018 | binding affinity KB compared to wild type [7]: little to no change | maximal increase of glycine EC50 (1/α) [8]: 143 fold | allosteric constant α ([8]; Schild analysis): 0.007 | allosteric constant α [9]: 0.001 | Kb [10]: 186 nM
